Experimental data reported in patent US6773702B2, “Use of combretastatin A4 and its prodrugs as an immune enhancing therapy” (OXiGENE, Inc., priority 2000, dated 2004).

Key:
[1] = test system: NO production by spleen cells of tumor-free immunized rats; assay: NO production by spleen cells (Griess technique) after in vitro preincubation with CA4P; type: cell-based, rat; conditions: for Nitric oxide production into supernatant: unseparated spleen cells (L0), CA4-P 0.15 μg/ml preincubated 3 h
Method: One of the main suppressive molecules produced by macrophages is nitric oxide (NO) and direct assays of the generation of NO released into the medium of parallel spleen cell cultures (containing both adherent and nonadherent cells) after exposure to SEA and CA4P were performed as previously described (Hegardt et al, Cancer Immunol & Immunother (2001) 50: 491-501).
The proliferative response of 3×10^5 admixed non-adherent cells (e.g. T-cells) stimulated for 4 days with SEA (0.05 ng/ml) was estimated as in Example 1. […] This effect is interpreted as due to a decrease of the suppressive effect of the IL-12 and IL-18 activated macrophages on T cell responses. Direct assays of the generation of NO released into the medium of parallel […] spleen cell cultures after exposure to SEA and CA4P were performed as previously described (Hegardt et al, 2001).

[2] = test system: BN7005-H1D2 colon cancer cells; assay: Comparison of CA4 and CA4P on BN7005-H1D2 tumor growth, alone or with vaccination (FIG. 5); type: in vivo, rat
Method: FIGS. 5A AND 5B illustrate a comparison of the therapeutic effect of Combretastatin A4 and Combretastatin A4 Prodrug (2 mg/kg) on tumor growth (BN7005-H1D2) in vivo as a sole therapy or in combination with therapeutic vaccination (IL-18 tumor transfectants). Results are represented as mean tumor volume (FIG. 5A) or as median tumor volume (FIG. 5B) 31 days after tumor initiation.
A comparison was also made of relative effect of CA4 and CA4P administration in vivo with regard to tumor inhibitory effects when used as sole therapy and when combined with immunomodulatory gene therapy. […] A subset of these animals were subjected to regular vaccinations autologous IL-18 and IL-12-transfected tumor cells, respectively.
A comparison has been made of the effect of CA4 and CA4 prodrug with regard to tumor inhibitory effects when used as sole therapy and when combined with immunomodulatory gene therapy. As represented in FIG. 5, wild-type (BN7005-H1D2) colon cancer cells were inoculated intrahepatically and treatment with CA4 and CA4P began on day 7 (2 mg/kg 6 days a week), when the tumors were macroscopically visible. On day 9, 16 and 23, vaccinations occurred using BN7005-H1D2 cells transfected with ILI8 and IL-12, respectively.

[3] = test system: spleen cells of tumor-free rats immunized with BN7005-H1D2-IL-12 and IL-18 cells; assay: Proliferative T cell response (thymidine incorporation) after in vitro preincubation of spleen cells with CA4P; type: cell-based, rat
From the text: Macrophages were isolated as plastic-adherent spleen cells from tumor-free rats vaccinated with IL-18 and IL-12 transfected tumor cells. […] This effect is interpreted as due to a decrease of the suppressive effect of IL-12 and IL-18 activated macrophages on T cell responses.
The observation of selective macrophage toxicity is further supported by the observation that CA4P treatment of unseparated spleen cells recapitulates this anti-tumor immune response. FIG. 3 illustrates the in vitro immune proliferative response of unseparated spleen cells isolated from tumor-free rats previously vaccinated with IL-18 and IL-12 transfected tumor cells. Spleen cells were stimulated with untransfected (H1D2-WT) tumor cells (FIG. 3A) or the superantigen SEA polyclonal activator (FIG. 3B) after preincubation with or without CA4P (0.15 μg/ml).
As described in Table 1, spleen cells were isolated from tumor-free BN×WF hybrid rats immunized twice (1 week between vaccinations) with BN7005-H1D2 tumor cells producing IL-18 and IL-12, respectively. Macrophages were isolated from the sample by allowing isolated spleen cells to adhere to the plastic surface of 96-well microtiter plates, at which point the non-adherent cells were removed.
The purified adherent cells (6×10^5/microtiter well) were treated in vitro for 3 hours with 0.15 ug/ml CA4P before washing. […] These variables were used to choose an in vitro concentration that is equal to the average concentration in vivo after a 3 hour period. For example, after treatment with 2 mg/kg in vivo, the concentration would be a maximum of 0.18 ug/ml 1.5 hours later, and less than 1 ng/ml after 3 hours.
The proliferative response of 3×10^5 admixed non-adherent cells (e.g. T-cells) stimulated for 4 days with SEA (0.05 ng/ml) was estimated as in Example 1. […] This effect is interpreted as due to a decrease of the suppressive effect of the IL-12 and IL-18 activated macrophages on T cell responses. […]

COc1ccc(/C=C\c2cc(OC)c(OC)c(OC)c2)cc1OP(=O)([O-])[O-].[Na+].[Na+] [CA4P, CA4 phosphate disodium salt]
Nitric oxide production into supernatant ([1]; Rat#1, Medium): 7 µM
Nitric oxide production into supernatant ([1]; Rat#1, SEA): 8 µM
Nitric oxide production into supernatant ([1]; Rat#2, Medium): 6 µM
Nitric oxide production into supernatant ([1]; Rat#2, SEA): 7 µM
Animals with inhibitory effect on NO production ([1]; parallel studies (FIG. 3), spleen cells, SEA 0.1 ng/ml, CA4P 0.15 μg/ml): all 4
Effect on NO produced ([1]; spleen cell cultures exposed to SEA and CA4P, 2 animals studied): significant reduction of NO produced
Tumor inhibitory effect ([2]; 2 mg/kg 6 days a week as sole therapy): no significant effect as sole therapy
Tumor inhibitory effect ([2]; 2 mg/kg combined with vaccination (IL-18 and IL-12 transfected tumor cells)): significant tumor inhibitory effects
Proliferative T cell response (CPM thymidine incorporation) ([3]; Rat#1, adherent spleen cells (MO) preincubated 3 h with CA4-P 0.15 μg/ml, then L1 nonadherent cells + SEA 0.05 ng/ml, 4 days): 124K
Animals with stimulating effect on proliferative response ([3]; parallel studies (FIG. 3), spleen cells stimulated with wild type tumor cells and SEA 0.1 ng/ml, CA4P 0.15 μg/ml): 3 of 4
Enhancement of in vitro proliferative response of admixed non-adherent cells ([3]; preincubation of adherent cells (spleen macrophages) with CA4P): 2 fold
